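Briefly, cells in 96-well plates were exposed to five compound concentrations for 48 h, and endpoints were estimated by linear interpolation. GI50 marks 50% less growth. TGI: total growth inhibition.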
Assays:
Experiment in all cases: inhibition of tumour cell growth, NCI panel, 48 h
SF-295 CNS = test system: SF-295 CNS
MDA-MB-435 = test system: MDA-MB-435
HCC-2998 colon = test system: HCC-2998 colon
NCI-H23 lung = test system: NCI-H23 lung
OVCAR-5 ovarian = test system: OVCAR-5 ovarian
HOP-62 NSCLC = test system: HOP-62 NSCLC
MDA-MB-231 breast = test system: MDA-MB-231 breast

| SMILES | GI50 (SF-295 CNS) [µM] | TGI (SF-295 CNS) [µM] | GI50 (MDA-MB-435) [µM] | TGI (MDA-MB-435) [µM] | GI50 (HCC-2998 colon) [µM] | TGI (HCC-2998 colon) [µM] | GI50 (NCI-H23 lung) [µM] | TGI (NCI-H23 lung) [µM] | GI50 (OVCAR-5 ovarian) [µM] | TGI (OVCAR-5 ovarian) [µM] | GI50 (HOP-62 NSCLC) [µM] | TGI (HOP-62 NSCLC) [µM] | GI50 (MDA-MB-231 breast) [µM] | TGI (MDA-MB-231 breast) [µM] |
| --- | --- | --- | --- | --- | --- | --- | --- | --- | --- | --- | --- | --- | --- | --- |
| O=C(/C=C/c1ccco1)c1cccc(Nc2nc(Nc3ccccc3)nc(Nc3ccccc3)n2)c1 | 2.94 | > 25.3 | 37.7 | > 100 | 25.7 | > 100 | 26.1 | > 100 | > 100 | > 100 | > 55.4 | > 100 | 5.4 | > 100 |
| CCCCCCCCCCCCCCCc1nc(SCC(=O)O)n[nH]1 | – | > 100 | – | – | – | > 100 | – | > 100 | – | – | – | > 100 | – | – |
| CC(=O)O[C@H]1CC[C@@]2(C)[C@@H](CC[C@@H]3[C@@H]2CC(=O)[C@@]2(C)[C@H]3C[C@@H]3CC(C)=CC(=O)[C@@H]32)C1 | – | > 100 | – | > 100 | – | > 100 | – | > 100 | – | > 100 | – | > 100 | – | > 100 |
| CC/C(=C(/c1ccc(Cl)cc1)c1ccc(OCCCN(C)C)cc1)c1ccc(OC)cc1 | 0.918 | 1.87 | 3.28 | 9.69 | 8.74 | 17.4 | 7.43 | 15.1 | 6.54 | 14.2 | 7.76 | 15.7 | 1.3 | 3.29 |
| COc1cccc(-c2nn(C)c3sc(C(=O)NCCN4CCN(c5ccccc5F)CC4)cc23)c1 | 4.85 | 29 | 10.5 | > 100 | 7.06 | > 100 | 34.5 | > 100 | 6.55 | 96.6 | 25.8 | > 100 | 3.87 | 62.4 |
| CN(Cc1cccc(Cl)c1)c1ccc(CO)c(Cl)c1 | 3.7 | 32.1 | 24.3 | 85.5 | 13.7 | 34.1 | 11.5 | 46.1 | 0.602 | 3.84 | 6.77 | 25.6 | 17.4 | 59.9 |
| COc1cc(-c2nc3cc(Cl)c(Cl)cc3[nH]2)ccc1OCC(=O)N=Nc1c(O)[nH]c2ccccc12 | 1.28 | 2.71 | 0.389 | 1.42 | 0.419 | 1.43 | 0.287 | 0.938 | 0.84 | 2.45 | 0.832 | 2.62 | 0.45 | 1.69 |
| O=C1/C=C/[C@@H](O)[C@@H]2C[C@@H](O)C[C@H]2/C=C/CCCCO1 | 0.774 | > 100 | 0.338 | > 26.8 | 0.32 | 1.76 | 0.488 | 63.1 | 0.682 | > 61.7 | 2.23 | > 100 | 0.298 | 1.31 |
| C/C(=N\O)c1ccc(Nc2cc(-c3ccccc3)nc3c(O)cccc23)cc1 | 5.24 | 18.3 | 6.72 | 26.6 | 10.6 | 23.4 | 17 | 49.5 | 23.8 | 47.4 | 12.9 | 26.6 | 2.46 | 11.8 |
| COc1ccccc1NC(=O)C(=O)C(C#N)CC(C)(C)C=O (stereo unspecified) | – | > 100 | – | > 100 | – | > 100 | – | > 100 | – | > 100 | – | > 100 | – | > 100 |
| COc1cc(/C=C/C(=O)c2ccc(SC)cc2)cc(OC)c1OC | – | – | 12.4 | 25.8 | 18 | 33.2 | 10 | 23.5 | 20.6 | 35.6 | 14.7 | 29.5 | 4.46 | 17.2 |
| C=CCOc1ccc2c(c1)CC[C@@H]1[C@@H]2CC[C@]2(C)C(=O)/C(=N/O)C[C@@H]12 | 14.6 | > 68.2 | 3.27 | 17.2 | 1.09 | 3.06 | 10.1 | 52.8 | 4.18 | > 45.4 | 6.08 | > 49.3 | 1.85 | 5.09 |
| COc1ccc(/C=N/C2=C(C#N)C(c3ccccc3)c3ccc4ccccc4c3O2)cc1 (stereo unspecified) | 0.314 | > 100 | 0.0962 | 0.353 | 0.92 | > 42 | 0.469 | > 100 | 0.885 | > 100 | 0.373 | > 100 | 0.522 | 8.39 |
| CC(=O)SC(C[N+](=O)[O-])c1ccccc1 (stereo unspecified) | – | 15.9 | – | 6.08 | – | 10.6 | – | 38.3 | – | 9.11 | – | 33 | – | 27 |
| COc1cc(Cl)c(C)cc1NC(=O)c1cc2ccccc2cc1O | 2.43 | 7.91 | 2.6 | 8.92 | 3.31 | 12.8 | 1.97 | 8.19 | 3.47 | 14.1 | 2.37 | 10.3 | 1.19 | 2.72 |
| OC(c1cc2c(Cl)cc(Cl)cc2c2cc(C(F)(F)F)ccc12)C1CCCCN1 (stereo unspecified) | – | – | 2.14 | 4.75 | 1.64 | 3.24 | 1.66 | 3.43 | 1.58 | 3.15 | 1.72 | 3.47 | 1.48 | 3.24 |
| COc1ccc(-n2cc(-c3ccc(F)cc3)[nH]c2=O)cc1OC | > 100 | > 100 | > 100 | > 100 | > 100 | > 100 | > 100 | > 100 | > 100 | > 100 | 54.7 | > 100 | > 100 | > 100 |
| O=c1c(Br)ccc(Br)cc1Br | 8.01 | 22.4 | 1.85 | 4.38 | 3.07 | 8.6 | 1.72 | 3.66 | 1.76 | 3.46 | 2.38 | 5.58 | 1.99 | 3.68 |
| O=C(Nc1ccc(-n2cc(-c3ccncc3)c(-c3ccc(Cl)c(O)c3)n2)cc1)c1ccc(Cl)c(C(F)(F)F)c1 | 0.216 | 0.475 | 1.45 | 13.1 | 1.69 | 6.96 | 1.72 | 5.08 | 5.25 | 29.4 | 0.622 | 2.2 | 0.322 | 1.48 |

| SMILES | GI50 (SF-295 CNS) [µM] | TGI (SF-295 CNS) [µM] | GI50 (MDA-MB-435) [µM] | TGI (MDA-MB-435) [µM] | GI50 (HCC-2998 colon) [µM] | TGI (HCC-2998 colon) [µM] | GI50 (NCI-H23 lung) [µM] | TGI (NCI-H23 lung) [µM] | GI50 (OVCAR-5 ovarian) [µM] | TGI (OVCAR-5 ovarian) [µM] | GI50 (HOP-62 NSCLC) [µM] | TGI (HOP-62 NSCLC) [µM] | GI50 (MDA-MB-231 breast) [µM] | TGI (MDA-MB-231 breast) [µM] |
| --- | --- | --- | --- | --- | --- | --- | --- | --- | --- | --- | --- | --- | --- | --- |
| c1ccc2c(c1)-c1nc3ccccc3cc1C2N1CCOCC1 (stereo unspecified) | – | > 100 | – | > 100 | – | – | – | > 100 | – | > 100 | – | > 100 | – | > 100 |
| Nc1ncnc2c1c(-c1ccc(Oc3ccccc3)cc1)nn2C[C@H]1SSC[C@H]1O | 0.678 | 3.19 | 0.0255 | 0.0736 | 0.388 | 2.03 | 0.242 | 0.968 | 2.2 | > 31.3 | 0.039 | 0.893 | 1.33 | 3.71 |
| O=C(O)c1cccc(F)c1C(=O)c1ccc2ccccc2c1 | – | > 100 | – | > 100 | – | – | – | – | – | > 100 | – | > 100 | – | > 100 |
| CCCCCCOc1ccc(/C=N/Nc2cc(C)nc3ccc(Br)cc23)cc1 | 1.72 | 3.2 | 1.73 | 3.16 | 2.03 | 3.56 | 1.78 | 3.43 | 1.94 | 3.36 | 1.47 | 2.94 | 1.62 | 3.08 |
| Cc1cc(=O)[nH]c2c1C(=O)C(=O)C=C2 | 24.1 | 52.8 | 15.1 | 33.2 | > 100 | > 100 | 21.9 | 48.3 | 41.3 | > 100 | 17.6 | 35.7 | 21.2 | 45.2 |
| COc1cc(-c2cc(C(=O)N3CCN(C(=O)c4ccccc4NCc4cccs4)CC3)nc3cc(-c4ccccc4)nn23)cc(OC)c1OC | 3.78 | > 100 | 1.16 | 4.34 | 14.3 | > 100 | 15.7 | > 100 | 15.1 | > 100 | 11 | 86.7 | 8.67 | > 100 |
| N=C(N)c1ccc(-c2ccc(-c3ccccc3)o2)o1 | 1.81 | 4.03 | 0.999 | 2.39 | 1.61 | 3.25 | 5.78 | 19.8 | 2.7 | 10.9 | 3.59 | 15.3 | 2.04 | 4.9 |
| NC(CSC(c1ccccc1)(c1ccccc1)c1ccc(Br)cc1)C(=O)O (stereo unspecified) | 0.0764 | > 100 | 0.0402 | 0.199 | 0.174 | 1.5 | 0.438 | 66.7 | 5.13 | > 100 | 0.457 | 21.8 | 0.133 | 3.92 |
| Nc1nc(-c2ccccc2Cl)cc(-c2ccc(Cl)cc2Cl)n1 | – | – | 1.97 | 4.93 | 7.19 | 44 | 12.3 | > 100 | 8.09 | > 100 | 8.21 | > 100 | 9.3 | > 100 |
| Cn1cc(C2=C(c3cn(CCCN/C(N)=N\[N+](=O)[O-])c4ccccc34)C(=O)NC2=O)c2ccccc21 | 3.74 | > 23.6 | 3.01 | 7.73 | 6.72 | 20.4 | 5.13 | 15.9 | 11.4 | > 25 | 3.89 | > 16.6 | 3.8 | 16.5 |
| Cc1nc(N(C)C)nc(-c2cccc(-c3ccn(CCN(C)C)n3)c2)c1C | – | – | > 20 | > 20 | > 20 | > 20 | > 20 | > 20 | > 20 | > 20 | > 20 | > 20 | > 20 | > 20 |
| CCCCCCCCCCCC(=O)[O][Sn]([CH2]CCC)([CH2]CCC)[CH2]CCC | 0.0679 | 0.177 | 0.0553 | 0.15 | 0.0669 | 0.187 | 0.0312 | 0.145 | 0.0548 | 0.164 | 0.0795 | 0.232 | 0.0317 | 0.113 |
| COC(=O)/C=C/c1cc(OC)c2c(c1)[C@@H](C(=O)OC)[C@H](c1ccc(OC)c(OC)c1)O2 | 0.715 | > 100 | – | – | 3.35 | > 100 | 3.57 | > 100 | 5.23 | > 100 | 4.33 | > 100 | 7.39 | > 100 |
| Nc1c(C(=O)Nc2cccc3ccccc23)sc2nc3c(cc12)CCCCCC3 | 1.39 | > 50 | – | – | 2.64 | > 50 | 1.97 | > 50 | 2.7 | > 50 | 5.05 | > 50 | 2.75 | > 50 |
| O=c1c(-c2nc3ccccc3[nH]2)cc2ccccc2n1Cc1cn(Cc2ccc(F)cc2)nn1 | 0.253 | 11 | – | – | 0.203 | 3.31 | 0.457 | 19 | 0.287 | 7.84 | 0.222 | 9.51 | 0.313 | 8.41 |
| COc1ccc(S(=O)(=O)Nc2c(/C=C\c3cc(OC)c(OC)c(OC)c3)ccc(OC)c2O)cc1OC | 0.242 | > 100 | 0.03 | 0.302 | 0.306 | 5.57 | 0.318 | > 100 | 0.751 | > 100 | 0.61 | > 100 | 0.338 | > 100 |
| COC(=O)c1cccc(COc2ccc([N+](=O)[O-])cc2Cl)c1 | – | > 100 | – | > 100 | – | – | – | > 100 | – | > 100 | – | > 100 | – | > 100 |
| COc1ccc2nc3c(cc2c1)C(=O)CC(C(F)(F)F)C3 (stereo unspecified) | 1.41 | 23.3 | – | – | 4.14 | 99.1 | 5.39 | > 100 | 5.56 | > 100 | 3.36 | > 100 | 2.34 | > 100 |

— PubChem BioAssay (NCI)
